Source: patent publication US20150190369A1, “QUERCETIN-3-GLUCOSIDE AND USES THEREOF” (priority 2012, published 2015)
Entries after “also recorded” stand apart in the source; their conditions may differ. Read-outs that look alike come from different tables or passages of the source.

Experiments:
[1] = dogs, meal supplement; cited from earlier work
LDLR = test: Semi-quantitative immunoblotting for LDLR protein in Huh7 cell lysates; assay type: cell-based, human
Procedure: At passage, Huh7 cells were routinely seeded at sub-confluence (˜10^6 cells/10-cm dish) in Dulbecco's modified Eagle's medium (DMEM) containing 10% fetal bovine serum (FBS) or LPDS (for experiments) and 50 μg/ml gentamycin. They were incubated overnight at 37° C., in a humidified 5% CO2-95% air atmosphere. Cells were treated or not with Q3G at defined concentrations and for defined lengths of time. Media were collected and centrifuged at 200 g for 5 min to sediment suspended cells; supernatants were collected and supplemented with 0.33 volumes of a 3×-concentrated PIC. Cell monolayers were rinsed with ice-cold phosphate-buffered saline (PBS); they were overlaid with […] the RIPA lysis buffer (50 mM Tris-HCl, pH 8, 150 mM NaCl, 1% NP-40, 0.5% Na-deoxycholate and 0.1% SDS) supplemented with 1× PIC. After 20 min in an ice bath, the lysates were centrifuged at 14,000 g and 4° C. for 20 min, and supernatants were collected. Conditioned media and lysates were stored at −20° C. until analysis.
(§1) Cell lysates were fractionated by SDS-PAGE and electrophoretically transferred onto a polyvinylidene fluoride membrane. The membrane was incubated with a goat antihuman LDLR, rabbit anti-PCSK9, or rabbit anti-SREBP-2 polyclonal antibody at 1:1000, 1:1500, and 1:200 dilutions, respectively, and then with a HRP-conjugated heterospecific secondary antibody against the primary Igs at a 1:2000 dilution. It was probed for HRP reaction using the Western Lightning Chemiluminescence Reagent Plus a chemiluminescence-based revelation kit. The signal was captured on X-ray film and immunoreactive bands analyzed by densitometry on a Syngene's ChemiGenius^2XE Bio Imaging System (Cambridge, Mass.) within the dynamic range of the instrument. The membrane was stripped and reprobed with the anti-β-actin monoclonal primary antibody at 1:20,000 dilution and HRP-conjugated rabbit anti-mouse IgG secondary antibody at a 1:5000 dilution. The densitometric values of β-actin bands were using for normalization of experimental samples.
Huh7 cells, hepatocyte derived cellular carcinoma cells, were incubated for 24 h in medium containing 10% lipoprotein-depleted serum (LPDS) and 0 to 10 μM Q3G. The level of LDLR mRNA was measured by quantitative real-time RT-PCR; that of the LDLR protein by semi-quantitative immunoblotting. Exposure to Q3G increased the intracellular content of LDLR mRNA in a concentration-dependent manner; the increase reached a 2× maximum at 2 μM (P<0.01, relative to no Q3G) (FIG. 3A). The content of the corresponding protein followed a similar pattern, but reached a 4× maximum at 4 μM (P<0.005) (FIG. 3B).
The kinetics of cellular accumulation of LDLR and PCSK9 at 2 μM Q3G was also examined: PCSK9 accumulation in the cells began after a 3-h lag; that of LDLR after 6-h lag (FIG. 6).
Statins induce expression of LDLR and PCSK9. […] We examined whether, at a 5 μM concentration of Q3G, simvastatin at 0.2 and 1 μM could further up regulate LDLR expression in Huh7 cells; and, inversely, whether the flavonol can reduce statin-stimulated PCSK9 secretion secreted by Huh7 cells.

MIN6 β-cells = test: GSIS assay (glucose-stimulated insulin secretion, insulin ELISA); assay type: cell-based, mouse; settings: MIN6, stimulation with 18 mM glucose, 30 min
Procedure: The assays for PCSK9 and insulin were conducted as prescribed by kit manufacturers, using a Thermo Scientific plate reader. For example, PCSK9 levels in conditioned media were measured using the human PCSK9 ELISA kit from Circulex, as specified the manufacturer. The assay was a sandwich immunoassay using two antibodies (A and B) recognizing different PCSK9 epitopes. Briefly, aliquot of diluted media were overlaid on wells coated with anti-PCSK9 antibody A. After 1-h incubation, the wells were washed, overlaid with a solution of HRP-conjugated anti-PCSK9 antibody B, and incubated for 1 h. They were washed again, and overlaid with a solution of tetra-methylbenzidine as a chromogenic substrate for HRP. After 15 min, the reaction was stopped with […] and the absorbance of the reaction mixtures measured by spectrophotometry at 450 nm. All the steps were performed at room temperature. Standards consisted of recombinant human PCSK9.
Cells were seeded and grown to 80% confluence. Prior to GSIS assay, fresh medium containing 3 mM Glucose and 10% FBS medium (low-glucose medium or LGM) without or with Q3G was substituted and incubation resumed for 6 h to adapt the cells to low glucose. Fresh LGM without or with Q3G was substituted and supplemented or not with glucose to the final concentration of 18 mM. […]

HNF-1α = test: Immunoblotting for HNF-1α in cells exposed to Q3G; assay type: cell-based; settings: cells incubated 24 h with Q3G
Procedure: FIG. 3 is a graph illustrating hepatocyte nuclear factor la (HNF-1α) expression in cells on exposure to Q3G. Cells were incubated for 24 h in medium containing the indicated concentrations of Q3G. Cells lysates were analyzed by semi-quantitative immunoblotting for the levels of HNF-1α.
as §1

[2] = pigs, meal supplement; cited from earlier work

## O=c1c(O[C@@H]2O[C@H](CO)[C@@H](O)[C@H](O)[C@H]2O)c(-c2ccc(O)c(O)c2)oc2cc(O)cc(O)c12 [Q3G, quercetin-3-O-β-D-glucoside]
[1]
  quercetin bioavailability versus quercetin aglycone and rutin: significantly greater
LDLR; Huh7, 2 μM Q3G, time course
  lag before LDLR accumulation in the cells: 6 h
LDLR; Huh7, 24 h, 10% LPDS, 0 to 10 μM Q3G, maximum at 4 μM
  increase of LDLR protein content (maximum): 4 ×
LDLR; Huh7, 24 h, co-treatment 5 μM Q3G with simvastatin 0.2 and 1 μM
  level of cellular LDLR: increased cellular LDLR to the level induced by the flavonol alone
LDLR; Huh7, 24 h, high Q3G concentrations (>20 NM), concentration-dependent
  effect of high concentrations on stimulation of LDLR expression: attenuated; also recorded: attenuation
MIN6 β-cells
  glucose-stimulated insulin secretion, treated versus untreated cells: comparable; also recorded: without affecting
HNF-1α
  level of HNF-1α: does not change
[2]
  quercetin bioavailability versus quercetin aglycone and rutin: significantly greater
